Laboratory results published in the RepoRT retention time repository (doi:10.1021/acs.analchem.2c02893).

Assay: RP, Thermo Scientific Acclaim RSLC 120 C18, 100 × 2.1 mm, 2.2 µm, 30 °C, 0.2 mL/min, estimated dead time 1.1 min; A: 90% water + 10% methanol + 0.01% formic acid + 5 mM ammonium formate, pH 3.61; B: methanol + 0.01% formic acid + 5 mM ammonium formate, pH 3.61; gradient (min/%B) 0/1 1/1 2/39 13/99.9 15/99.9 15.1/1 20.1/1
Conditions: stereoisomer not certain

COc1ccc2[nH]cc(CC(=O)O)c2c1 [MeOT (5-)] and O=C(O)Cc1c[nH]c2ccccc12 [Indole-3-acetic acid] are within 1.5-fold of each other in LC retention time: 4.01 min for the first, 5.78 min for the second.

Compared with NC(=O)N1c2ccccc2C=Cc2ccccc21 [Carbamazepine], CCCCCn1cc(C(=O)Cc2ccccc2C)c2ccccc21 [JWH-251] is 1.7-fold higher in LC retention time: 7.36 min for the first, 12.2 min for the second.

CN(C)P(=O)(OP(=O)(N(C)C)N(C)C)N(C)C [Schradan] and COP(=O)(OC)OC(C)=CC(=O)N(C)C [Dicrotophos] are within 1.5-fold of each other in LC retention time: 5.36 min for the first, 4.5 min for the second.

CC(C)N1CCN(c2ccc(OCC3COC(Cn4cncn4)(c4ccc(Cl)cc4Cl)O3)cc2)CC1 (stereo unspecified) [Terconazole] and CC1(C)CCC(=Cc2ccc(Cl)cc2)C1(O)Cn1cncn1 (stereo unspecified) [Triticonazole] are within 1.5-fold of each other in LC retention time: 8.2 min for the first, 10.1 min for the second.

Compared with CCN(CC)C(=O)C(C#N)=Cc1cc(O)c(O)c([N+](=O)[O-])c1 [Entacapon], CCCN(CCC)c1c([N+](=O)[O-])cc(C(C)C)cc1[N+](=O)[O-] [Isopropalin] is 1.9-fold higher in LC retention time: 6.89 min for the first, 13.2 min for the second.

First: CC(C)Nc1nc(NC(C)C)[nH]c(=O)n1 [Propazine-2-hydroxy (Prometon-Hydroxy)]
Second: CCCCc1c(C)nc(NCC)nc1OS(=O)(=O)N(C)C [Bupirimate]
The LC retention time of the first is 1.8-fold lower: 5.96 min for the first, 10.5 min for the second.

CCCCCn1nc(C(=O)NC(C(N)=O)C(C)(C)C)c2ccccc21 (stereo unspecified) [ADB-PINACA] and O=C(Nc1cccc2cccnc12)c1nn(CCCCCF)c2ccccc12 [THJ-5F] are within 1.5-fold of each other in LC retention time: 11.2 min for the first, 12.5 min for the second.

First: Nc1nc(N)c2nc(-c3ccccc3)c(N)nc2n1 [Triamterene]
Second: O=C1CN=C(c2ccccc2)c2cc(Cl)ccc2N1 [Diazepam-Nor]
The LC retention time of the first is 2-fold lower: 4.68 min for the first, 9.23 min for the second.

Cc1cc(C2CC2)nc(Nc2ccccc2)n1 [Cyprodinil] and c1ccc2c(c1)[nH]c1ccncc12 [5-Carboline] are within 1.5-fold of each other in LC retention time: 11 min for the first, 8.7 min for the second.

COC(C)(C)CCCC(C)CC=CC(C)=CC(=O)OC(C)C (stereo unspecified) [Methoprene] and CCNP(=S)(OC)OC(C)=CC(=O)OC(C)C (stereo unspecified) [Propetamphos] are within 1.5-fold of each other in LC retention time: 13.6 min for the first, 9.79 min for the second.

CC(NC(C)(C)C)C(=O)c1cccc(Cl)c1 (stereo unspecified) [Bupropion] and CCNC(C)C(=O)c1ccc(C)cc1 (stereo unspecified) [MEC (4-)] are within 1.5-fold of each other in LC retention time: 5.76 min for the first, 4.74 min for the second.

CCCc1nc(C)c2c(=O)[nH]c(-c3cc(S(=O)(=O)N4CCCCC4)ccc3OCC)nn12 [Vardenafil-Pseudo] and CCCOc1ccc(S(=O)(=O)N2CCN(CCO)CC2)cc1-c1nc2c(CCC)cn(CC)c2c(=O)[nH]1 [Mirodenafil] are within 1.5-fold of each other in LC retention time: 10.6 min for the first, 9.49 min for the second.

CCc1cc2c(s1)-n1cnnc1CN=C2c1ccccc1Cl [Metizolam (Desmethyletizolam)] and O=C1CN=C(c2ccccc2F)c2cc(Cl)ccc2N1CCO [Flurazepam-2-OH-Ethyl] are within 1.5-fold of each other in LC retention time: 7.93 min for the first, 8.19 min for the second.

Compared with CCCCNC(=O)n1c(NC(=O)OC)nc2ccccc21 [Benomyl (decomposed to Carbendazim)], CCCCn1c(O)c(C(=O)c2cccc3ccccc23)c2ccccc21 [JWH-073-M-2-OH-Ind] is 2.5-fold higher in LC retention time: 5.46 min for the first, 13.5 min for the second.

Going from CCOCCN(C(=O)CCl)C(=C(C)C)c1ccccc1 [Pethoxamide] to CC(=O)N(C)N(C(=O)C(=O)N(C)C)c1ccccc1 [AMDOPH], the LC retention time falls from 10.1 min to 5.06 min (2-fold).

First: N#CN=C1SCCN1Cc1ccc(Cl)nc1 [Thiacloprid]
Second: COC(=O)COc1ccc(Cl)cc1Cl [2.4-D-methylester]
The LC retention time of the first is 1.7-fold lower: 5.62 min for the first, 9.61 min for the second.

Compared with CNC(=O)ON=C(CSC)C(C)(C)C [Thiofanox], COP(=O)(NC(C)=O)SC (stereo unspecified) [Acephate] is 2.5-fold lower in LC retention time: 7.8 min for the first, 3.11 min for the second.

CC1(C)C(C=C(Cl)Cl)C1C(=O)OC(C#N)c1ccc(F)c(Oc2ccccc2)c1 (stereo unspecified) [Cyfluthrin (Baythroid)] and CC(=O)CC(c1ccc(Cl)cc1)c1c(O)c2ccccc2oc1=O (stereo unspecified) [Coumachlor] are within 1.5-fold of each other in LC retention time: 13 min for the first, 10.2 min for the second.

Compared with CN1C(C(=O)Nc2ccccn2)=C(O)c2ccccc2S1(=O)=O [Piroxicam], O=C(c1ccccc1I)c1cn(CCCCCF)c2ccccc12 [AM-694] is 1.5-fold higher in LC retention time: 6.84 min for the first, 10.5 min for the second.

Going from CCC(c1cccc(O)c1)C(C)CN(C)C (stereo unspecified) [Tapentadol] to CCNC(C)C(O)c1ccc(O)c(O)c1 (stereo unspecified) [Dioxethedrin], the LC retention time falls from 5.01 min to 1.99 min (2.5-fold).

CCCCCn1cc(C(=O)NC23CC4CC(CC(C4)C2)C3)c2ccccc21 [APICA] and CCCCn1cc(C(=O)c2cccc3ccccc23)c2cc(O)ccc21 [JWH-073-M-5-OH-Ind] are within 1.5-fold of each other in LC retention time: 13.2 min for the first, 11.3 min for the second.

CCCCCCCCCCCCN=C(N)N [Dodine (Ion1+)] and CCCCOc1ccc(C(=O)OCCN(CC)CC)cc1 [Butoxycaine] are within 1.5-fold of each other in LC retention time: 11.2 min for the first, 11.3 min for the second.

Nc1c(Br)cc(Br)cc1CNC1CCC(O)CC1 (stereo unspecified) [Ambroxol] and CC12C=CC3=C4CCC(=O)C=C4CCC3C1CCC2O (stereo unspecified) [Trenbolone] are within 1.5-fold of each other in LC retention time: 6.04 min for the first, 8.89 min for the second.

COC=C(C(=O)OC)c1ccccc1COc1cccc(C(F)(F)F)n1 [Picoxystrobin] and CCOP(=S)(OCC)Oc1ccc(=O)n(-c2ccccc2)n1 [Pyridaphenthion] are within 1.5-fold of each other in LC retention time: 10.5 min for the first, 9.79 min for the second.

CON=C(C(=O)NC1C(=O)N2C(C(=O)O)=C(CSC(=O)c3ccco3)CSC12)c1csc(N)n1 (stereo unspecified) [Ceftiofur] and CON=C(C(=O)NC1C(=O)N2C(C(=O)[O-])=C(C[n+]3cccc4c3CCCC4)CSC12)c1csc(N)n1 (stereo unspecified) [Cefquinome] are within 1.5-fold of each other in LC retention time: 5.44 min for the first, 3.76 min for the second.

N=C1NC(=O)C(c2ccccc2)O1 (stereo unspecified) [Pemoline] and CN(C)c1ccccc1 [Dimethylanilin (N.N-)] are within 1.5-fold of each other in LC retention time: 4.34 min for the first, 6.26 min for the second.

NC(=NN=Cc1ccc(Cl)cc1)NN=Cc1ccc(Cl)cc1 [Robenidine] and O=C(c1ccc(Cl)cc1)c1ccc(Cl)cc1 [Benzophenone-p.p-Dichloro] are within 1.5-fold of each other in LC retention time: 10.4 min for the first, 11.9 min for the second.

Going from O=C(O)c1cc(Oc2ccc(C(F)(F)F)cc2Cl)ccc1[N+](=O)[O-] [Acifluorfen] to O=S(=O)(O)c1ccc2nc(-c3ccccc3)[nH]c2c1 [Phenylbenzimidazole sulfonic acid], the LC retention time falls from 8.95 min to 4.63 min (1.9-fold).

[O-][n+]1nc(-n2ccnc2)nc2ccc(Cl)cc21 [Triazoxide] and CC(C)(C)C(=O)C(Oc1ccc(Cl)cc1)n1ccnc1 (stereo unspecified) [Climbazole] are within 1.5-fold of each other in LC retention time: 8.37 min for the first, 10.1 min for the second.

COc1ccc(C(=O)c2c(C)n(CCN3CCOCC3)c3ccccc23)cc1 [WIN-48-098] and CN1CCN(CCC=C2c3ccccc3Sc3ccc(S(=O)(=O)N(C)C)cc32)CC1 [Thiothixene] are within 1.5-fold of each other in LC retention time: 9.55 min for the first, 8.38 min for the second.

CC1c2cccc(O)c2C(O)=C2C(=O)C3(O)C(O)=C(C(N)=O)C(=O)C(N(C)C)C3C(O)C21 (stereo unspecified) [Doxycycline] and CC(=O)C1(O)CCC2C3CC(C)C4=CC(=O)C=CC4(C)C3(F)C(O)CC21C (stereo unspecified) [Fluorometholone] are within 1.5-fold of each other in LC retention time: 6.2 min for the first, 8.91 min for the second.

Compared with ON=Cc1cc[n+](COC[n+]2ccc(C=NO)cc2)cc1 [Obidoxime], CC(C)n1c(C=CC(O)CC(O)CC(=O)O)c(-c2ccc(F)cc2)c2ccccc21 (stereo unspecified) [Fluvastatin] is 3.6-fold higher in LC retention time: 3.03 min for the first, 10.9 min for the second.

CN(C)C(=O)Nc1ccc(Cl)cc1 [Monuron] and CC(=O)Nc1ccc(S(=O)(=O)Nc2cc(C)on2)cc1 [Sulfamethoxazole-N4-Acetyl  (Impurity A)] are within 1.5-fold of each other in LC retention time: 6.9 min for the first, 5.28 min for the second.

C=C1CC(=CC)C(=O)OC2CCN3CC=C(COC(=O)C1(C)O)C23 (stereo unspecified) [Seneciphylline] and CN1CC2CC1CN2c1cc2c(cc1F)c(=O)c(C(=O)O)cn2C1CC1 (stereo unspecified) [Danofloxacin] are within 1.5-fold of each other in LC retention time: 4.17 min for the first, 4.54 min for the second.

Compared with COc1ccc(CC(C)N)cc1 (stereo unspecified) [PMA], CCCOP(=O)(OCCC)Oc1ccc(SC)cc1 [Propaphos] is 2.5-fold higher in LC retention time: 4.34 min for the first, 10.8 min for the second.

CC(Cc1ccccc1)N1C=C(NC(=O)N=C2C=CC(=O)C=C2)ON1 (stereo unspecified) [Mesocarb-P-Hydroxy] and CC1=CC(=O)N2CC(=O)N(C)c3ccc(Cl)cc3C2(c2ccccc2)O1 (stereo unspecified) [Ketazolam] are within 1.5-fold of each other in LC retention time: 7.24 min for the first, 9.79 min for the second.

COc1cc2c(cc1OC)CC(=O)N(CCCN(C)CC1Cc3cc(OC)c(OC)cc31)CC2 (stereo unspecified) [Ivabradine] and COc1ccc(CC2c3cc(OC)c(OC)cc3CCN2C)cc1OC (stereo unspecified) [Laudanosine] are within 1.5-fold of each other in LC retention time: 5.02 min for the first, 4.71 min for the second.

Compared with Cc1cc(NS(=O)(=O)c2ccc(N)cc2)on1 [Sulfamethoxazole (Impurity F)], CC(C)(C)c1ccc(CSc2cnn(C(C)(C)C)c(=O)c2Cl)cc1 [Pyridaben] is 3.1-fold higher in LC retention time: 4.39 min for the first, 13.4 min for the second.

CN1CCN(C(c2ccccc2)c2ccc(Cl)cc2)CC1 (stereo unspecified) [Chlorcyclizine] and C[N+]12CCC(CC1)C(OC(=O)C(O)(c1ccccc1)c1ccccc1)C2 (stereo unspecified) [Clidinium (I+)] are within 1.5-fold of each other in LC retention time: 8.28 min for the first, 5.84 min for the second.

First: OC(CCN1CCCC1)(c1ccccc1)C1CCCCC1 (stereo unspecified) [Procyclidine]
Second: C=CCN1CCCC1CNC(=O)c1cc2n[nH]nc2cc1OC (stereo unspecified) [Alizapride]
The LC retention time of the first is 2.2-fold higher: 7.8 min for the first, 3.62 min for the second.

CCC(C)(NC(=O)c1cc(Cl)c(C)c(Cl)c1)C(=O)CCl (stereo unspecified) [Zoxamide] and CC(C)NC(=O)N1CC(=O)N(c2cc(Cl)cc(Cl)c2)C1=O [Iprodione] are within 1.5-fold of each other in LC retention time: 11.1 min for the first, 10.5 min for the second.

First: CC(C)(C)NCC(O)COc1cccc2c1CCC(=O)N2 (stereo unspecified) [Carteolol]
Second: COP(=O)(OC)OC1=C(Cl)C2CC=CC12 (stereo unspecified) [Heptenophos]
The LC retention time of the first is 2.2-fold lower: 3.91 min for the first, 8.49 min for the second.

First: O=C(O)C1C2CCC(O2)C1C(=O)O (stereo unspecified) [Endothal]
Second: CC(C)C(Br)C(=O)NC(N)=O (stereo unspecified) [Bromural (Bromisoval)]
The LC retention time of the first is 1.9-fold lower: 3.2 min for the first, 6.17 min for the second.
